A compilation of properties of binary mixtures (doi:10.1016/j.molliq.2017.06.029)

Experiment: xn = mol fraction of the nth substance listed
Details: 100 kPa

Which results are given for `OCc1ccco1` + CC(=O)[O-].CC[n+]1ccn(C)c1?
speed of sound (298.15 K, x2 = 0): 1447 m/s; speed of sound (298.15 K, x2 = 0.0572): 1487 m/s; speed of sound (298.15 K, x2 = 0.1058): 1522 m/s; speed of sound (298.15 K, x2 = 0.1534): 1548 m/s; speed of sound (298.15 K, x2 = 0.2087): 1573 m/s; speed of sound (298.15 K, x2 = 0.408): 1637 m/s; speed of sound (298.15 K, x2 = 0.5513): 1670 m/s; speed of sound (298.15 K, x2 = 0.6031): 1680 m/s; speed of sound (298.15 K, x2 = 0.7053): 1696 m/s; speed of sound (298.15 K, x2 = 0.8045): 1711 m/s; speed of sound (298.15 K, x2 = 0.8441): 1716 m/s; speed of sound (298.15 K, x2 = 0.902): 1723 m/s; speed of sound (303.15 K, x2 = 0): 1431 m/s; speed of sound (303.15 K, x2 = 0.0572): 1471 m/s; speed of sound (303.15 K, x2 = 0.1058): 1506 m/s; speed of sound (303.15 K, x2 = 0.1534): 1532 m/s; speed of sound (303.15 K, x2 = 0.2087): 1557 m/s; speed of sound (303.15 K, x2 = 0.408): 1623 m/s; speed of sound (303.15 K, x2 = 0.5513): 1656 m/s; speed of sound (303.15 K, x2 = 0.6031): 1666 m/s; speed of sound (303.15 K, x2 = 0.7053): 1683 m/s; speed of sound (303.15 K, x2 = 0.8441): 1704 m/s; speed of sound (308.15 K, x2 = 0): 1413 m/s; speed of sound (308.15 K, x2 = 0.0572): 1452 m/s; speed of sound (308.15 K, x2 = 0.1058): 1487 m/s; speed of sound (308.15 K, x2 = 0.2087): 1540 m/s; speed of sound (308.15 K, x2 = 0.3068): 1577 m/s; speed of sound (308.15 K, x2 = 0.408): 1609 m/s; speed of sound (308.15 K, x2 = 0.5063): 1633 m/s; speed of sound (308.15 K, x2 = 0.5513): 1643 m/s; speed of sound (308.15 K, x2 = 0.8045): 1685 m/s; speed of sound (308.15 K, x2 = 0.8441): 1691 m/s; speed of sound (308.15 K, x2 = 0.902): 1699 m/s; speed of sound (313.15 K, x2 = 0): 1394 m/s; speed of sound (313.15 K, x2 = 0.0572): 1430 m/s; speed of sound (313.15 K, x2 = 0.1058): 1465 m/s; speed of sound (313.15 K, x2 = 0.1534): 1490 m/s; speed of sound (313.15 K, x2 = 0.2087): 1519 m/s; speed of sound (313.15 K, x2 = 0.408): 1595 m/s; speed of sound (313.15 K, x2 = 0.5063): 1620 m/s; speed of sound (313.15 K, x2 = 0.5513): 1629 m/s; speed of sound (313.15 K, x2 = 0.7053): 1657 m/s; speed of sound (313.15 K, x2 = 0.8045): 1673 m/s; speed of sound (313.15 K, x2 = 0.8441): 1678 m/s; speed of sound (313.15 K, x2 = 0.902): 1686 m/s; speed of sound (318.15 K, x2 = 0): 1375 m/s; speed of sound (318.15 K, x2 = 0.1058): 1433 m/s; speed of sound (318.15 K, x2 = 0.3068): 1534 m/s; speed of sound (318.15 K, x2 = 0.408): 1578 m/s; speed of sound (318.15 K, x2 = 0.5063): 1606 m/s; speed of sound (318.15 K, x2 = 0.6031): 1627 m/s; speed of sound (318.15 K, x2 = 0.8045): 1660 m/s; speed of sound (318.15 K, x2 = 0.8441): 1666 m/s; speed of sound (318.15 K, x2 = 0.902): 1674 m/s

For `CC(=O)[O-].CC[n+]1ccn(C)c1` + OCc1ccco1, which speed of sound (298.15 K, x1 = 1) is on record?
The speed of sound was 1735 m/s.

What about the speed of sound (303.15 K, x1 = 1) of the same molecule?
Its speed of sound is 1722 m/s.

And the speed of sound (308.15 K, x1 = 1)?
The speed of sound was 1710 m/s.

And the speed of sound (313.15 K, x1 = 1)?
The speed of sound was 1698 m/s.

And the speed of sound (318.15 K, x1 = 1)?
The speed of sound was 1686 m/s.
